Source: patent US20070128217A1 (priority 2003, published 2007)

Columns and labels:
[1] = tested on: rabbit serum obtained by immunizing a rabbit with the SARS-CoV strain Frankfurt 1; type: binding; set-up: Binding of a rabbit serum to linear peptides / Binding of a rabbit serum to looped peptides / Rabbit serum linear peptides / Rabbit serum looped peptides / Binding of a rabbit serum to linear peptides of protein N of SARS-CoV Urbani (Rabbit serum linear peptides) / Binding of a rabbit serum to looped/cyclic peptides of protein N of SARS-CoV Urbani (Rabbit serum looped peptides): unit not given here
[2] = tested on: antibodies in sera from SARS patients (sera 1a, 1b, 2, 6, 37, 62, London, SARS-yellow, SARS-green); type: binding, human; set-up: Binding of serum 6 to linear peptides of protein X1 of SARS-CoV Urbani / Binding of serum 37 to linear peptides of protein X1 of SARS-CoV Urbani / Binding of serum 6 to looped/cyclic peptide (PEPSCAN-ELISA) / Binding of serum 37 to looped/cyclic peptide (PEPSCAN-ELISA) / Binding of serum 37 to looped/cyclic peptides of protein X1 of SARS-CoV Urbani / Binding of serum 6 to linear peptides of protein X2 / Binding of serum 37 to linear peptides of protein X2 / Binding of serum 37 to looped/cyclic peptides of protein X2 of SARS-CoV Urbani / Binding of serum 6 to linear peptides of protein M of SARS-CoV Urbani / Binding of serum 37 to linear peptides of protein M of SARS-CoV Urbani / Binding of serum 6 to looped/cyclic peptides of protein M of SARS-CoV Urbani / Binding of serum 37 to looped/cyclic peptides of protein M of SARS-CoV Urbani / Binding of serum 6 to linear peptides of protein X3 of SARS-CoV Urbani / Binding of serum 37 to linear peptides of protein X3 of SARS-CoV Urbani / Binding of serum 37 to looped/cyclic peptides of protein X3 of SARS-CoV Urbani / Binding of serum 6 to linear peptides of protein X4 of SARS-CoV Urbani / Binding of serum 37 to linear peptides of protein X4 of SARS-CoV Urbani / Binding of serum 37 to looped/cyclic peptides of protein X4 of SARS-CoV Urbani / Binding of serum 6 to linear peptides of protein X5 of SARS-CoV Urbani / Binding of serum 37 to linear peptides of protein X5 of SARS-CoV Urbani / Binding of serum 37 to looped/cyclic peptides of protein X5 of SARS-CoV Urbani / Binding of serum 6 to linear peptides of protein N of SARS-CoV Urbani / Binding of serum 37 to linear peptides of protein N of SARS-CoV Urbani / Binding of serum 6 to linear peptide (PEPSCAN-ELISA) / Binding of serum 1a to looped/cyclic peptides of protein N of SARS-CoV Urbani / Binding of serum 1b to looped/cyclic peptides of protein N of SARS-CoV Urbani / Binding of serum 2 to looped/cyclic peptides of protein N of SARS-CoV Urbani / Binding of serum 6 to looped/cyclic peptides of protein N of SARS-CoV Urbani / Binding of serum 37 to looped/cyclic peptides of protein N of SARS-CoV Urbani / Binding of serum 62 to looped/cyclic peptides of protein N of SARS-CoV Urbani / Binding of serum London to looped/cyclic peptides of protein N of SARS-CoV Urbani / Binding of serum SARS-green to looped/cyclic peptides of protein N of SARS-CoV Urbani: unit not given here
[3] = tested on: control sera (pooled serum of ten healthy LUMC hospital workers; commercial negative donor pooled serum from the Dutch bloodbank); type: binding, human; set-up: Binding of Control serum LUMC to linear peptides / Binding of Control serum Blood-bank to linear peptides / Binding of Control serum LUMC to looped peptides / Binding of Control Serum Blood-Bank to Looped peptides / Binding of Control serum LUMC to linear peptides of the protein M of SARS-CoV Urbani / Binding of Control serum Blood-bank to linear peptides of the protein M of SARS-CoV Urbani / Binding of Control serum LUMC to looped peptides of the protein M of SARS-CoV Urbani / Binding of Control Serum Blood-Bank to Looped peptides of the protein M of SARS-CoV Urbani: unit not given here

Q: For GTIVTRPLMESELVI, which “Rabbit serum linear peptides” value [1] is on record?
A: 0.1

Q: And the “Rabbit serum looped peptides” value [1]?
A: 0.5

Q: And the “Binding of serum 1a to linear peptides of protein M of SARS-CoV Urbani” value [2]?
A: 0.8

Q: And the “Binding of serum 1b to linear peptides of protein M of SARS-CoV Urbani” value [2]?
A: 0.7

Q: What about the “Binding of serum 2 to linear peptides of protein M of SARS-CoV Urbani” value [2] of the same sequence?
A: 0.7

Q: And the “Binding of serum 6 to linear peptides of protein M of SARS-CoV Urbani” value [2]?
A: 0.5

Q: And the “Binding of serum 37 to linear peptides of protein M of SARS-CoV Urbani” value [2]?
A: 0.6

Q: What about the “Binding of serum 62 to linear peptides of protein M of SARS-CoV Urbani” value [2] of the same sequence?
A: 0.7

Q: What about the “Binding of serum London to linear peptides of protein M of SARS-CoV Urbani” value [2] of the same sequence?
A: 0.3

Q: And the “Binding of serum SARS-green to linear peptides of protein M of SARS-CoV Urbani” value [2]?
A: 0.7

Q: What about the “Binding of serum SARS-yellow to linear peptides of protein M of SARS-CoV Urbani” value [2] of the same sequence?
A: 0.2

Q: And the “Recognition of the peptide by sera of SARS-CoV infected individuals, and form (linear, looped/cyclic) in which it is recognized” value [2]?
A: recognized in looped/cyclic form

Q: And the “Binding of Control Serum Blood-Bank to Looped peptides of the protein M of SARS-CoV Urbani” value [3]?
A: 0.8

Q: And the “Binding of Control serum Blood-bank to linear peptides of the protein M of SARS-CoV Urbani” value [3]?
A: 0.7

Q: And the “Binding of Control serum LUMC to linear peptides of the protein M of SARS-CoV Urbani” value [3]?
A: 0.6

Q: And the “Binding of Control serum LUMC to looped peptides of the protein M of SARS-CoV Urbani” value [3]?
A: 1.0

Q: How did the “Recognition of the peptide by the rabbit serum” value [1] turn out when GTRHTYQLRARSVSP was run?
A: recognized

Q: And the “Binding of serum 1a to linear peptides of protein X4 of SARS-CoV Urbani” value [2]?
A: 0.7

Q: What about the “Binding of serum 1a to looped/cyclic peptides of protein X4 of SARS-CoV Urbani” value [2] of the same sequence?
A: 0.8

Q: And the “Binding of serum 1b to linear peptides of protein X4 of SARS-CoV Urbani” value [2]?
A: 0.6

Q: And the “Binding of serum 1b to looped/cyclic peptides of protein X4 of SARS-CoV Urbani” value [2]?
A: 0.5

Q: What about the “Binding of serum 2 to linear peptides of protein X4 of SARS-CoV Urbani” value [2] of the same sequence?
A: 0.8

Q: And the “Binding of serum 2 to looped/cyclic peptides of protein X4 of SARS-CoV Urbani” value [2]?
A: 1.0

Q: What about the “Binding of serum 6 to linear peptides of protein X4 of SARS-CoV Urbani” value [2] of the same sequence?
A: 0.6

Q: And the “Binding of serum 6 to looped/cyclic peptides of protein X4 of SARS-CoV Urbani” value [2]?
A: 0.6

Q: And the “Binding of serum 37 to linear peptides of protein X4 of SARS-CoV Urbani” value [2]?
A: 0.8

Q: And the “Binding of serum 37 to looped/cyclic peptides of protein X4 of SARS-CoV Urbani” value [2]?
A: 0.7

Q: What about the “Binding of serum 62 to linear peptides of protein X4 of SARS-CoV Urbani” value [2] of the same sequence?
A: 0.8

Q: And the “Binding of serum 62 to looped/cyclic peptides of protein X4 of SARS-CoV Urbani” value [2]?
A: 0.8

Q: And the “Binding of serum London to linear peptides of protein X4 of SARS-CoV Urbani” value [2]?
A: 0.8

Q: What about the “Binding of serum London to looped/cyclic peptides of protein X4 of SARS-CoV Urbani” value [2] of the same sequence?
A: 0.3

Q: And the “Binding of serum SARS-green to linear peptides of protein X4 of SARS-CoV Urbani” value [2]?
A: 0.6

Q: What about the “Binding of serum SARS-green to looped/cyclic peptides of protein X4 of SARS-CoV Urbani” value [2] of the same sequence?
A: 0.5

Q: And the “Binding of serum SARS-yellow to linear peptides of protein X4 of SARS-CoV Urbani” value [2]?
A: 0.8

Q: What about the “Binding of serum SARS-yellow to looped/cyclic peptides of protein X4 of SARS-CoV Urbani” value [2] of the same sequence?
A: 0.7

Q: What about the “Binding of Control Serum Blood-Bank to Looped peptides” value [3] of the same sequence?
A: 0.7

Q: What about the “Binding of Control serum Blood-bank to linear peptides” value [3] of the same sequence?
A: 0.8

Q: And the “Binding of Control serum LUMC to linear peptides” value [3]?
A: 0.6

Q: What about the “Binding of Control serum LUMC to looped peptides” value [3] of the same sequence?
A: 0.8

Q: With GVAFLAVFQSATKII as the sequence, how does the “Binding of a rabbit serum to linear peptides” value [1] read?
A: 0.9

Q: What about the “Binding of a rabbit serum to looped peptides” value [1] of the same sequence?
A: 0.6

Q: What about the “Binding of serum 1a to linear peptides of protein X1 of SARS-CoV Urbani” value [2] of the same sequence?
A: 0.7

Q: And the “Binding of serum 1a to looped/cyclic peptide (PEPSCAN-ELISA)” value [2]?
A: 0.6

Q: What about the “Binding of serum 1b to linear peptides of protein X1 of SARS-CoV Urbani” value [2] of the same sequence?
A: 0.6

Q: And the “Binding of serum 1b to looped/cyclic peptide (PEPSCAN-ELISA)” value [2]?
A: 0.4

Q: What about the “Binding of serum 2 to linear peptides of protein X1 of SARS-CoV Urbani” value [2] of the same sequence?
A: 0.8

Q: And the “Binding of serum 2 to looped/cyclic peptide (PEPSCAN-ELISA)” value [2]?
A: 0.6

Q: What about the “Binding of serum 6 to linear peptides of protein X1 of SARS-CoV Urbani” value [2] of the same sequence?
A: 0.7

Q: And the “Binding of serum 6 to looped/cyclic peptide (PEPSCAN-ELISA)” value [2]?
A: 0.5

Q: What about the “Binding of serum 37 to linear peptides of protein X1 of SARS-CoV Urbani” value [2] of the same sequence?
A: 0.6

Q: And the “Binding of serum 37 to looped/cyclic peptide (PEPSCAN-ELISA)” value [2]?
A: 0.6

Q: And the “Binding of serum 62 to linear peptides of protein X1 of SARS-CoV Urbani” value [2]?
A: 0.6

Q: What about the “Binding of serum 62 to looped/cyclic peptide (PEPSCAN-ELISA)” value [2] of the same sequence?
A: 0.6

Q: And the “Binding of serum London to linear peptides of protein X1 of SARS-CoV Urbani” value [2]?
A: 0.2

Q: What about the “Binding of serum London to looped/cyclic peptide (PEPSCAN-ELISA)” value [2] of the same sequence?
A: 0.4

Q: What about the “Binding of serum SARS-green to linear peptides of protein X1 of SARS-CoV Urbani” value [2] of the same sequence?
A: 0.3

Q: And the “Binding of serum SARS-green to looped/cyclic peptide (PEPSCAN-ELISA)” value [2]?
A: 0.3

Q: What about the “Binding of serum SARS-yellow to linear peptides of protein X1 of SARS-CoV Urbani” value [2] of the same sequence?
A: 0.2

Q: And the “Binding of serum SARS-yellow to looped/cyclic peptide (PEPSCAN-ELISA)” value [2]?
A: 0.3

Q: And the “Binding of Control Serum Blood-Bank to Looped peptides” value [3]?
A: 0.7

Q: And the “Binding of Control serum Blood-bank to linear peptides” value [3]?
A: 0.5

Q: What about the “Binding of Control serum LUMC to linear peptides” value [3] of the same sequence?
A: 0.7

Q: And the “Binding of Control serum LUMC to looped peptides” value [3]?
A: 0.7
